These results are taken from the supplement of paper PMC10307832.

Compound in the test “Crenolanib + AZD7762”: CC1(COc2ccc3c(c2)ncn3-c2ccc3cccc(N4CCC(N)CC4)c3n2)COC1 [Crenolanib] + NC(=O)Nc1cc(-c2cccc(F)c2)sc1C(=O)N[C@H]1CCCNC1 [AZD7762] (partner 0.2 µM)
As to the kind of experiment: relative viability (nuclei count vs DMSO), 5 days (fraction); higher = more cells survive. Summed up: (§1)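 Dosing by pin tool came one day after lung cancer cell lines were seeded in 1536-well plates, using either one drug or a fixed anchor-drug dose plus five library-drug doses (not always all listed) in √10 steps. After 5 days, nuclei were counted on 4× images. Relative viability is treated-well nuclei count divided by vehicle-well nuclei count, and values are medians of duplicate plates.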

Compound in the test “Crenolanib + Vorinostat”: CC1(COc2ccc3c(c2)ncn3-c2ccc3cccc(N4CCC(N)CC4)c3n2)COC1 [Crenolanib] + O=C(CCCCCCC(=O)Nc1ccccc1)NO [Vorinostat] (partner 1 µM)
Described as above. The gist of the method: as §1

For the cell line SW 900, the relative viability with Crenolanib + AZD7762 (first compound 0.01 µM) is 0.735; with Crenolanib + AZD7762 (first compound 0.1 µM), 0.756; with Crenolanib + AZD7762 (first compound 0.3162 µM), 0.858; with Crenolanib + AZD7762 (first compound 1 µM) it was 0.522; with Crenolanib + Vorinostat (first compound 0.01 µM) it was 0.548; with Crenolanib + Vorinostat (first compound 0.1 µM) it was 0.428. The relative viability amounted to 0.574 with Crenolanib + Vorinostat (first compound 0.3162 µM) and 0.435 with Crenolanib + Vorinostat (first compound 1 µM).
